Data reported in ChEMBL document CHEMBL5543086, “Discovery of novel NSAID hybrids as cPLA2/COX-2 dual inhibitors alleviating rheumatoid arthritis via inhibiting p38 MAPK pathway” (Eur J Med Chem, 2024).
The source made the active and inactive calls. The calls are words filed in the database; no cut-off is given here.

Columns and labels:
RAW264.7 [1] = test: Antiinflammatory activity against LPS-induced mouse RAW264.7 cells assessed as inhibition of iNOS protein expression pretreated for 1 hr followed by LPS stimulation and measured after 24 hrs by Western blot analysis; type: functional, cell-based; conditions: dose 2.5-10 µM, time 25.0 hrs
[2] = Nephrotoxicity in male Wistar rat assessed as effect on blood urea nitrogen level at 20 mg/kg, po administered for 3 days; type: toxicity, organism-based; conditions: in vivo, 72 h, time 3 day
Rattus norvegicus [3] = test: (§1) Antiarthritic activity in Freund's complete adjuvant induced Lewis rat model of arthritis assessed as reduction in joint tissue damage by measuring reduction in cartilage degeneration at 20 mg/kg, po administered every 24 hrs for 28 days post immunization starting from day 8 post immunization by H and E staining based analysis; type: functional, organism-based; conditions: time 21.0 day
Rattus norvegicus [4] = test: Antiarthritic activity in Freund's complete adjuvant induced Lewis rat model of arthritis assessed as reduction in arthritis score at 20 mg/kg, po administered every 24 to 48 hrs for 28 days post immunization starting from day 8 post immunization; type: functional, organism-based; conditions: time 21.0 day
Rattus norvegicus [5] = test: Antiarthritic activity in Freund's complete adjuvant induced Lewis rat model of arthritis assessed as reduction in joint deformities at 20 mg/kg, po administered every 24 to 48 hrs for 28 days post immunization starting from day 8 post immunization; type: functional, organism-based; conditions: time 21.0 day
RAW264.7 [6] = test: Antiinflammatory activity against LPS-induced mouse RAW264.7 cells assessed as inhibition of phosphorylated p38 MAPK protein expression pretreated for 1 hr followed by LPS stimulation and measured after 24 hrs by Western blot analysis; type: functional, cell-based; conditions: dose 2.5-10 µM, time 25.0 hrs
Rattus norvegicus [7] = test: (§2) Immunomodulatory activity in Freund's complete adjuvant induced Lewis rat model of arthritis assessed as increase in IL-10 level in serum at 20 mg/kg, po administered every 24 to 48 hrs for 28 days post immunization starting from day 8 post immunization by ELISA; type: functional, organism-based; conditions: time 21.0 day
[8] = Toxicity in male Wistar rat assessed as gastrointestinal damage by measuring number of ulcers at 100 mg/kg administered by gavage and measured after 6 hrs (reference value: 0); type: organism-based; conditions: in vivo, po
[9] = molecular target: T1, Cytosolic phospholipase A2 (Mus musculus) (UniProt P47713); test: Binding affinity to cPLA2 in LPS-induced mouse RAW264.7 cells assessed as thermal stability at 45 to 53 degreeC at 30 uM pretreated with LPS for 24 hrs followed by compound addition and measured after 2 hrs by CETSA; type: cell-based
T1 sequence (whole entry): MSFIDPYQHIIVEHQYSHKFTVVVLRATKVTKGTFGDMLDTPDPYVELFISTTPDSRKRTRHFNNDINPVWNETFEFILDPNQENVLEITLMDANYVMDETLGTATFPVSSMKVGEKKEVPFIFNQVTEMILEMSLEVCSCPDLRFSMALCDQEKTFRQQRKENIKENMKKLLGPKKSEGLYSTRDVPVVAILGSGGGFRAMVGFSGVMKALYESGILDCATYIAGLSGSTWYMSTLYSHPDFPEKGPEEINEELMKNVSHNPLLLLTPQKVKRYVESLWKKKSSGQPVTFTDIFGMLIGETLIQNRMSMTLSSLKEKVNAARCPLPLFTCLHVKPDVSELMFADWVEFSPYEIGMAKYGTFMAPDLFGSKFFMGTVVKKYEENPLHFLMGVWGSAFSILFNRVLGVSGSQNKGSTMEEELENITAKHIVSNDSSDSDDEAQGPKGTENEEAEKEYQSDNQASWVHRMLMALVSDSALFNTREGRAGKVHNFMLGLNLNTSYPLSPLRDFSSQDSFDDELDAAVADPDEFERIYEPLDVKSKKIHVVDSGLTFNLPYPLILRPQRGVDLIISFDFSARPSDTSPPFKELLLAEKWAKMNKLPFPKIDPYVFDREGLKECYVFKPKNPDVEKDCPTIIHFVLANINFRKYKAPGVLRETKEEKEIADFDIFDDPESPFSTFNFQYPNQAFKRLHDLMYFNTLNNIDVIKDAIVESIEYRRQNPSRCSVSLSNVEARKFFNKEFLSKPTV

RAW264.7 [10] = test: Antiinflammatory activity in LPS-induced mouse RAW264.7 cells assessed as inhibition of NO production at 10 uM pretreated for 1 hr followed by LPS stimulation and measured over 48 hrs by griess reagent based assay; type: functional, cell-based; conditions: time > 49.0 hrs
Rattus norvegicus [11] = test: Antiarthritic activity in Freund's complete adjuvant induced Lewis rat model of arthritis assessed as reduction in joint deformities induced walking and polyarthritis symptoms at 20 mg/kg, po administered every 24 to 48 hrs for 28 days post immunization starting from day 8 post immunization; type: functional, organism-based; conditions: time 21.0 day
[12] = Toxicity in male Wistar rat assessed as gastrointestinal damage by measuring number of ulcers at 50 mg/kg administered by gavage and measured after 6 hrs (reference value: 0); type: organism-based; conditions: in vivo, po
RAW264.7 [13] = test: Antiinflammatory activity against LPS-induced mouse RAW264.7 cells assessed as inhibition of COX-2 protein expression pretreated for 1 hr followed by LPS stimulation and measured after 24 hrs by Western blot analysis; type: functional, cell-based; conditions: dose 2.5-10 µM, time 25.0 hrs
[14] = Toxicity in male Wistar rat assessed as gastrointestinal damage by measuring level-3 ulcers with >3 mm area at 100 mg/kg administered by gavage and measured after 6 hrs; type: organism-based; conditions: in vivo, po
Mus musculus [15] = organism: Mus musculus; test: Analgesic activity in mouse model assessed as reduction in acetic acid induced inflammatory pain; type: functional, organism-based
Rattus norvegicus [16] = test: Antiarthritic activity in Freund's complete adjuvant induced Lewis rat model of arthritis assessed as reduction in IL-17 protein expression at 20 mg/kg, po administered every 24 to 48 hrs for 28 days post immunization starting from day 8 post immunization by Western blot analysis; type: functional, organism-based; conditions: time 21.0 day
[17] = Hepatotoxicity in male Wistar rat assessed as effect on glutamic pyruvic transaminase level at 20 mg/kg, po administered for 3 days; type: toxicity, organism-based; conditions: in vivo, 72 h, time 3 day
Rattus norvegicus [18] = test: as §2, with “CD4positive CD25positive Treg cells” for “IL-10 level”, “peripheral blood” for “serum”, “24” for “24 to 48”, “flow cytometry analysis” for “ELISA”; type: functional, organism-based; conditions: time 21.0 day
Mus musculus [19] = organism: Mus musculus; test: Antiinflammatory activity in mouse model of cotton pellet implantation-induced granuloma; type: functional, organism-based
Rattus norvegicus [20] = test: Immunomodulatory activity in Freund's complete adjuvant induced Lewis rat model of arthritis assessed as decrease in anti-IL-17 antibody expression in knee joint slices at 20 mg/kg, po administered every 24 to 48 hrs for 28 days post immunization starting from day 8 post immunization by immunohistochemistry analysis; type: functional, organism-based; conditions: time 21.0 day
[21] = Toxicity in male Wistar rat assessed as gastrointestinal damage by measuring level-1 ulcers with <1 mm area at 50 mg/kg administered by gavage and measured after 6 hrs; type: organism-based; conditions: in vivo, po
Rattus norvegicus [22] = test: Antiarthritic activity in Freund's complete adjuvant induced Lewis rat model of arthritis assessed as reduction in PGE2 level in serum at 20 mg/kg, po administered every 24 to 48 hrs for 28 days post immunization starting from day 8 post immunization by ELISA; type: functional, organism-based; conditions: time 21.0 day
Rattus norvegicus [23] = test: as §1, with “inflammatory cell infiltration” for “cartilage degeneration”; type: functional, organism-based; conditions: time 21.0 day
RAW264.7 [24] = test: Antiinflammatory activity against LPS-induced mouse RAW264.7 cells assessed as inhibition of cPLA2 protein expression pretreated for 1 hr followed by LPS stimulation and measured after 24 hrs by Western blot analysis; type: functional, cell-based; conditions: dose 2.5-10 µM, time 25.0 hrs
RAW264.7 [25] = test: Antiinflammatory activity in LPS-induced mouse RAW264.7 cells assessed as inhibition of NO production pretreated for 1 hr followed by LPS stimulation and measured after 24 hrs by griess reagent based assay; type: functional, cell-based

For `CCCCC/C=C\C/C=C\C/C=C\C/C=C\CC/C=C(/OC(=O)C(C)c1ccc(C(=O)c2ccccc2)cc1)C(F)(F)F` (stereo not given), the Activity (RAW264.7 [1]) was “Dose-Dependent Effect”, the Activity [2] was “Non-Toxic” and the Activity (Rattus norvegicus [3]) was “Active”. The Activity (Rattus norvegicus [4]) was “Active”, the Activity (Rattus norvegicus [5]) was “Active” and the Activity (RAW264.7 [6]) was “Dose-Dependent Effect”. The Activity (Rattus norvegicus [7]) was “Active”, the Activity [8] was 7 and the Activity [9] was “Active”. The Activity (RAW264.7 [10]) was “Active”, the Activity (Rattus norvegicus [11]) was “Active” and the Activity [12] was 0. The Activity (RAW264.7 [13]) was “Dose-Dependent Effect”, the Activity [14] was 0% and the Activity (Mus musculus [15]) was “Active”. The Activity (Rattus norvegicus [16]) was “Active”, the Activity [17] was “Non-Toxic” and the Activity (Rattus norvegicus [18]) was “Active”. For the same compound, the Activity (Mus musculus [19]) was “Active”, the Activity (Rattus norvegicus [20]) was “Active” and the Activity [21] was 0%. For the same compound, the Activity (Rattus norvegicus [22]) was “Active”, the Activity (Rattus norvegicus [23]) was “Active” and the Activity (RAW264.7 [24]) was “Dose-Dependent Effect”. The IC50 (RAW264.7 [25]) was 3.85 µM.
